Tests used:
Experiment in all cases: cells
U-118-MG = type: functional, cell-based, Homo sapiens
Description: SANGER: Inhibition of human U-118-MG cell growth in a cell viability assay.

KYSE-410 = type: functional, cell-based, Homo sapiens
Description: SANGER: Inhibition of human KYSE-410 cell growth in a cell viability assay.

KYSE-510 = type: functional, cell-based, Homo sapiens
Description: SANGER: Inhibition of human KYSE-510 cell growth in a cell viability assay.

HCC1569 = type: functional, cell-based, Homo sapiens
Description: SANGER: Inhibition of human HCC1569 cell growth in a cell viability assay.

HT-1080 = type: functional, cell-based, Homo sapiens
Description: SANGER: Inhibition of human HT-1080 cell growth in a cell viability assay.

NCI-H2170 = type: functional, cell-based, Homo sapiens
Description: SANGER: Inhibition of human NCI-H2170 cell growth in a cell viability assay.

G-361 = type: functional, cell-based, Homo sapiens
RPMI-7951 = type: functional, cell-based, Homo sapiens
Description: SANGER: Inhibition of human RPMI-7951 cell growth in a cell viability assay.

NUGC-3 = type: functional, cell-based, Homo sapiens
Description: SANGER: Inhibition of human NUGC-3 cell growth in a cell viability assay.

YH-13 = type: functional, cell-based, Homo sapiens
Description: SANGER: Inhibition of human YH-13 cell growth in a cell viability assay.

WM-115 = type: functional, cell-based, Homo sapiens
Description: SANGER: Inhibition of human WM-115 cell growth in a cell viability assay.

Panc1005 = type: functional, cell-based, Homo sapiens
Description: SANGER: Inhibition of human PANC-10-05 cell growth in a cell viability assay.

SNU-423 = type: functional, cell-based, Homo sapiens
Description: SANGER: Inhibition of human SNU-423 cell growth in a cell viability assay.

NCI-H596 = type: functional, cell-based, Homo sapiens
Description: SANGER: Inhibition of human NCI-H596 cell growth in a cell viability assay.

IGROV-1 = type: functional, cell-based, Homo sapiens
Description: SANGER: Inhibition of human IGROV-1 cell growth in a cell viability assay.

A2058 = type: functional, cell-based, Homo sapiens
Description: SANGER: Inhibition of human A2058 cell growth in a cell viability assay.

M14 = type: functional, cell-based, Homo sapiens
Description: SANGER: Inhibition of human M14 cell growth in a cell viability assay.

LoVo = type: functional, cell-based, Homo sapiens
Description: SANGER: Inhibition of human LoVo cell growth in a cell viability assay.

PA-1 = type: functional, cell-based, Homo sapiens
Description: SANGER: Inhibition of human PA-1 cell growth in a cell viability assay.

MDA-MB-157 = type: functional, cell-based, Homo sapiens
Description: SANGER: Inhibition of human MDA-MB-157 cell growth in a cell viability assay.

NCI-H2030 = type: functional, cell-based, Homo sapiens
Description: SANGER: Inhibition of human NCI-H2030 cell growth in a cell viability assay.

DBTRG-05MG = type: functional, cell-based, Homo sapiens
Description: SANGER: Inhibition of human DBTRG-05MG cell growth in a cell viability assay.

NCI-H2052 = type: functional, cell-based, Homo sapiens
Description: SANGER: Inhibition of human NCI-H2052 cell growth in a cell viability assay.

IGR-1 = type: functional, cell-based, Homo sapiens
Description: SANGER: Inhibition of human IGR-1 cell growth in a cell viability assay.

KYSE-520 cell line = type: functional, cell-based, Homo sapiens
Description: SANGER: Inhibition of human KYSE-520 cell growth in a cell viability assay.

A-427 = type: functional, cell-based, Homo sapiens
Description: SANGER: Inhibition of human A427 cell growth in a cell viability assay.

AU565 = type: functional, cell-based, Homo sapiens
Description: SANGER: Inhibition of human AU565 cell growth in a cell viability assay.

MKN-28 = type: functional, cell-based, Homo sapiens
Description: SANGER: Inhibition of human MKN28 cell growth in a cell viability assay.

COLO-679 = type: functional, cell-based, Homo sapiens
Description: SANGER: Inhibition of human COLO-679 cell growth in a cell viability assay.

SK-N-AS = type: functional, cell-based, Homo sapiens
Description: SANGER: Inhibition of human SK-N-AS cell growth in a cell viability assay.

LU-99A = type: functional, cell-based, Homo sapiens
Description: SANGER: Inhibition of human LU-99A cell growth in a cell viability assay.

SAOS-2 = type: functional, cell-based, Homo sapiens
Description: SANGER: Inhibition of human Saos-2 cell growth in a cell viability assay.

SK-MEL3 = type: functional, cell-based, Homo sapiens, SK-MEL-3
Description: SANGER: Inhibition of human SK-MEL-3 cell growth in a cell viability assay.

DoTc2-4510 = type: functional, cell-based, Homo sapiens
SW1417 = type: functional, cell-based, Homo sapiens
Description: SANGER: Inhibition of human SW1417 cell growth in a cell viability assay.

CAL-54 = type: functional, cell-based, Homo sapiens
Description: SANGER: Inhibition of human CAL-54 cell growth in a cell viability assay.

EGI-1 = type: functional, cell-based, Homo sapiens
Description: SANGER: Inhibition of human EGI-1 cell growth in a cell viability assay.

## Cc1cn(-c2cc(NC(=O)c3ccc(C)c(Nc4nccc(-c5cccnc5)n4)c3)cc(C(F)(F)F)c2)cn1 [NILOTINIB]
U-118-MG; Homo sapiens, U-118-MG
  IC50: > 2000 nM
KYSE-410; Homo sapiens, KYSE-410
  IC50: > 2000 nM
KYSE-510; Homo sapiens, KYSE-510
  IC50: > 2000 nM
HCC1569; Homo sapiens, HCC1569
  IC50: > 2000 nM
HT-1080; Homo sapiens, HT-1080
  IC50: > 2000 nM
NCI-H2170; Homo sapiens, NCI-H2170
  IC50: > 2000 nM
G-361; Homo sapiens, G-361
  IC50: > 2000 nM
RPMI-7951; Homo sapiens, RPMI-7951
  IC50: > 2000 nM
NUGC-3; Homo sapiens, NUGC-3
  IC50: > 2000 nM
YH-13; Homo sapiens, YH-13
  IC50: > 2000 nM
WM-115; Homo sapiens, WM-115
  IC50: > 2000 nM
Panc1005; Homo sapiens, Panc1005
  IC50: > 2000 nM
SNU-423; Homo sapiens, SNU-423
  IC50: > 2000 nM
NCI-H596; Homo sapiens, NCI-H596
  IC50: > 2000 nM
IGROV-1; Homo sapiens, IGROV-1
  IC50: > 2000 nM
A2058; Homo sapiens, A2058
  IC50: > 2000 nM
M14; Homo sapiens, M14
  IC50: > 2000 nM
LoVo; Homo sapiens, LoVo
  IC50: > 2000 nM
PA-1; Homo sapiens, PA-1
  IC50: > 2000 nM
MDA-MB-157; Homo sapiens, MDA-MB-157
  IC50: > 2000 nM
NCI-H2030; Homo sapiens, NCI-H2030
  IC50: > 2000 nM
DBTRG-05MG; Homo sapiens, DBTRG-05MG
  IC50: > 2000 nM
NCI-H2052; Homo sapiens, NCI-H2052
  IC50: > 2000 nM
IGR-1; Homo sapiens, IGR-1
  IC50: > 2000 nM
KYSE-520 cell line; Homo sapiens, KYSE-520
  IC50: > 2000 nM
A-427; Homo sapiens, A-427
  IC50: > 2000 nM
AU565; Homo sapiens, AU565
  IC50: > 2000 nM
MKN-28; Homo sapiens, MKN-28
  IC50: > 2000 nM
COLO-679; Homo sapiens, COLO-679
  IC50: > 2000 nM
SK-N-AS; Homo sapiens, SK-N-AS
  IC50: > 2000 nM
LU-99A; Homo sapiens, LU-99A
  IC50: > 2000 nM
SAOS-2; Homo sapiens, SAOS-2
  IC50: > 2000 nM
SK-MEL3; Homo sapiens, SK-MEL3
  IC50: > 2000 nM
DoTc2-4510; Homo sapiens, DoTc2-4510
  IC50: > 2000 nM
SW1417; Homo sapiens, SW1417
  IC50: > 2000 nM
CAL-54; Homo sapiens, CAL-54
  IC50: > 2000 nM
EGI-1; Homo sapiens, EGI-1
  IC50: > 2000 nM

## CO[C@H]1C[C@@H]2CC[C@@H](C)[C@@](O)(O2)C(=O)C(=O)N2CCCC[C@H]2C(=O)O[C@H]([C@H](C)C[C@@H]2CC[C@@H](OC(=O)C(C)(CO)CO)[C@H](OC)C2)CC(=O)[C@H](C)/C=C(\C)[C@@H](O)[C@@H](OC)C(=O)[C@H](C)C[C@H](C)/C=C/C=C/C=C/1C [TEMSIROLIMUS]
U-118-MG; Homo sapiens, U-118-MG
  IC50: 16.7 nM
KYSE-410; Homo sapiens, KYSE-410
  IC50: 180 nM
KYSE-510; Homo sapiens, KYSE-510
  IC50: > 200 nM
HCC1569; Homo sapiens, HCC1569
  IC50: > 200 nM
HT-1080; Homo sapiens, HT-1080
  IC50: 17.9 nM
NCI-H2170; Homo sapiens, NCI-H2170
  IC50: > 200 nM
G-361; Homo sapiens, G-361
  IC50: 146 nM
RPMI-7951; Homo sapiens, RPMI-7951
  IC50: 39 nM
NUGC-3; Homo sapiens, NUGC-3
  IC50: 23.5 nM
YH-13; Homo sapiens, YH-13
  IC50: 41.1 nM
WM-115; Homo sapiens, WM-115
  IC50: > 200 nM
Panc1005; Homo sapiens, Panc1005
  IC50: 155 nM
SNU-423; Homo sapiens, SNU-423
  IC50: 173 nM
NCI-H596; Homo sapiens, NCI-H596
  IC50: > 200 nM
IGROV-1; Homo sapiens, IGROV-1
  IC50: 38.8 nM
A2058; Homo sapiens, A2058
  IC50: 26.6 nM
M14; Homo sapiens, M14
  IC50: > 200 nM
LoVo; Homo sapiens, LoVo
  IC50: > 200 nM
PA-1; Homo sapiens, PA-1
  IC50: 1.47 nM
MDA-MB-157; Homo sapiens, MDA-MB-157
  IC50: > 200 nM
NCI-H2030; Homo sapiens, NCI-H2030
  IC50: 98.1 nM
DBTRG-05MG; Homo sapiens, DBTRG-05MG
  IC50: > 200 nM
NCI-H2052; Homo sapiens, NCI-H2052
  IC50: > 200 nM
IGR-1; Homo sapiens, IGR-1
  IC50: > 200 nM
KYSE-520 cell line; Homo sapiens, KYSE-520
  IC50: 139 nM
A-427; Homo sapiens, A-427
  IC50: 183 nM
AU565; Homo sapiens, AU565
  IC50: > 200 nM
MKN-28; Homo sapiens, MKN-28
  IC50: > 200 nM
COLO-679; Homo sapiens, COLO-679
  IC50: > 200 nM
SK-N-AS; Homo sapiens, SK-N-AS
  IC50: 127 nM
LU-99A; Homo sapiens, LU-99A
  IC50: 125 nM
SAOS-2; Homo sapiens, SAOS-2
  IC50: > 200 nM
SK-MEL3; Homo sapiens, SK-MEL3
  IC50: > 200 nM
DoTc2-4510; Homo sapiens, DoTc2-4510
  IC50: > 200 nM
SW1417; Homo sapiens, SW1417
  IC50: > 200 nM
CAL-54; Homo sapiens, CAL-54
  IC50: 118 nM
EGI-1; Homo sapiens, EGI-1
  IC50: 22 nM

## CS(=O)(=O)c1ccc(C(=O)Nc2ccc(Cl)c(-c3ccccn3)c2)c(Cl)c1 [VISMODEGIB]
U-118-MG; Homo sapiens, U-118-MG
  IC50: > 10000 nM
KYSE-410; Homo sapiens, KYSE-410
  IC50: > 10000 nM
KYSE-510; Homo sapiens, KYSE-510
  IC50: > 10000 nM
HCC1569; Homo sapiens, HCC1569
  IC50: > 10000 nM
HT-1080; Homo sapiens, HT-1080
  IC50: > 10000 nM
NCI-H2170; Homo sapiens, NCI-H2170
  IC50: > 10000 nM
G-361; Homo sapiens, G-361
  IC50: > 10000 nM
RPMI-7951; Homo sapiens, RPMI-7951
  IC50: > 10000 nM
NUGC-3; Homo sapiens, NUGC-3
  IC50: > 10000 nM
YH-13; Homo sapiens, YH-13
  IC50: > 10000 nM
WM-115; Homo sapiens, WM-115
  IC50: > 10000 nM
Panc1005; Homo sapiens, Panc1005
  IC50: > 10000 nM
SNU-423; Homo sapiens, SNU-423
  IC50: > 10000 nM
NCI-H596; Homo sapiens, NCI-H596
  IC50: > 10000 nM
IGROV-1; Homo sapiens, IGROV-1
  IC50: 72.5 nM
A2058; Homo sapiens, A2058
  IC50: > 10000 nM
M14; Homo sapiens, M14
  IC50: > 10000 nM
LoVo; Homo sapiens, LoVo
  IC50: > 10000 nM
PA-1; Homo sapiens, PA-1
  IC50: > 10000 nM
MDA-MB-157; Homo sapiens, MDA-MB-157
  IC50: > 10000 nM
NCI-H2030; Homo sapiens, NCI-H2030
  IC50: > 10000 nM
DBTRG-05MG; Homo sapiens, DBTRG-05MG
  IC50: > 10000 nM
NCI-H2052; Homo sapiens, NCI-H2052
  IC50: > 10000 nM
IGR-1; Homo sapiens, IGR-1
  IC50: > 10000 nM
KYSE-520 cell line; Homo sapiens, KYSE-520
  IC50: > 10000 nM
A-427; Homo sapiens, A-427
  IC50: > 10000 nM
AU565; Homo sapiens, AU565
  IC50: > 10000 nM
MKN-28; Homo sapiens, MKN-28
  IC50: > 10000 nM
COLO-679; Homo sapiens, COLO-679
  IC50: > 10000 nM
SK-N-AS; Homo sapiens, SK-N-AS
  IC50: > 10000 nM
LU-99A; Homo sapiens, LU-99A
  IC50: > 10000 nM
SAOS-2; Homo sapiens, SAOS-2
  IC50: > 10000 nM
SK-MEL3; Homo sapiens, SK-MEL3
  IC50: > 10000 nM
DoTc2-4510; Homo sapiens, DoTc2-4510
  IC50: > 10000 nM
SW1417; Homo sapiens, SW1417
  IC50: > 10000 nM
CAL-54; Homo sapiens, CAL-54
  IC50: > 10000 nM
EGI-1; Homo sapiens, EGI-1
  IC50: > 10000 nM

## CISPLATIN
U-118-MG; u-118-mg
  IC50: 16800 nM
KYSE-410; kyse-410
  IC50: 515000 nM
KYSE-510; kyse-510
  IC50: 3380 nM
HCC1569; hcc1569
  IC50: 455000 nM
HT-1080; ht-1080
  IC50: 23900 nM
NCI-H2170; nci-h2170
  IC50: 23000 nM
G-361; g-361
  IC50: 672000 nM
RPMI-7951; rpmi-7951
  IC50: 4060 nM
NUGC-3; nugc-3
  IC50: 2140 nM
YH-13; yh-13
  IC50: 12100 nM
WM-115; wm-115
  IC50: 33400 nM
Panc1005; panc1005
  IC50: 8610 nM
SNU-423; snu-423
  IC50: 111000 nM
NCI-H596; nci-h596
  IC50: 305000 nM
IGROV-1; igrov-1
  IC50: 343 nM
A2058; a2058
  IC50: 17500 nM
M14; m14
  IC50: 2790 nM
LoVo; lovo
  IC50: 58200 nM
PA-1; pa-1
  IC50: 790 nM
MDA-MB-157; mda-mb-157
  IC50: 290000 nM
NCI-H2030; nci-h2030
  IC50: 11900 nM
DBTRG-05MG; dbtrg-05mg
  IC50: 15900 nM
NCI-H2052; nci-h2052
  IC50: 166000 nM
IGR-1; igr-1
  IC50: 575000 nM
KYSE-520 cell line; kyse-520
  IC50: 21800 nM
A-427; a-427
  IC50: 350000 nM
AU565; au565
  IC50: 52500 nM
MKN-28; mkn-28
  IC50: 31400 nM
COLO-679; colo-679
  IC50: 765000 nM
SK-N-AS; sk-n-as
  IC50: 38000 nM
LU-99A; lu-99a
  IC50: 4290 nM
SAOS-2; saos-2
  IC50: 36300 nM
SK-MEL3; sk-mel-3
  IC50: 684000 nM
DoTc2-4510; dotc2-4510
  IC50: 63600 nM
SW1417; sw1417
  IC50: 194000 nM
CAL-54; cal-54
  IC50: 12200 nM
EGI-1; egi-1
  IC50: 11100 nM

Reference: ChEMBL document CHEMBL1201861, “Genomics of Drug Sensitity in Cancer screening data, Wellcome Trust Sanger Institute”
